Reference: the NIST ThermoML archive (doi:10.1021/je800463k)

Test: mn = molality of the nth substance listed, in mol/kg
Conditions: 101 kPa, Liquid; for speed of sound: Frequency=2 MHz; for mass density: Pycnometric method; for electrical conductivity: Frequency=0.001 MHz, Alternating current cell with electrodes

CC(=O)[O-].CC(=O)[O-].[Mg+2] [magnesium acetate] + CO
Conditions	electrical conductivity [S/m]	mass density [kg/m3]	speed of sound [m/s]	viscosity [mPa·s]
308.15 K, m1 = 0.014	–	–	–	0.4859
308.15 K, m1 = 0.018	–	–	–	0.4878
308.15 K, m1 = 0.0339	–	–	–	0.496
308.15 K, m1 = 0.0646	–	–	–	0.5027
308.15 K, m1 = 0.0855	–	–	1073.8	–
308.15 K, m1 = 0.1012	–	–	–	0.5234
308.15 K, m1 = 0.1024	–	–	1077.1	–
308.15 K, m1 = 0.13	–	–	–	0.532
308.15 K, m1 = 0.1402	–	–	1078.5	0.5368
308.15 K, m1 = 0.1455	–	–	1075.3	–
308.15 K, m1 = 0.17	–	–	–	0.5518
308.15 K, m1 = 0.1837	–	–	1078.1	–
308.15 K, m1 = 0.2003	–	–	–	0.5625
308.15 K, m1 = 0.2192	–	–	1081.5	–
308.15 K, m1 = 0.2422	–	–	1081.2	0.5782
308.15 K, m1 = 0.2453	–	–	–	0.578
308.15 K, m1 = 0.2889	–	–	1082	0.5942
308.15 K, m1 = 0.3042	–	–	1083.6	–
308.2 K, m1 = 0.0093	–	779.23	–	–
308.7 K, m1 = 0.1112	–	786.87	–	–
308.9 K, m1 = 0.053	–	781.63	–	–
308.9 K, m1 = 0.1798	–	791.35	–	–
308.9 K, m1 = 0.2003	–	791.74	–	–
308.9 K, m1 = 0.2668	–	795.13	–	–
308.95 K, m1 = 0.0855	–	783.63	–	–
309.1 K, m1 = 0.0059	–	777.74	–	–
309.1 K, m1 = 0.1455	–	788.87	–	–
309.45 K, m1 = 0.2192	–	791.87	–	–
309.5 K, m1 = 0.3042	–	796.38	–	–
309.75 K, m1 = 0.0646	–	782.66	–	–
309.95 K, m1 = 0.2422	–	793.32	–	–
310.25 K, m1 = 0.014	–	778.28	–	–
310.25 K, m1 = 0.0339	–	779.95	–	–
310.5 K, m1 = 0.1402	–	787	–	–
310.65 K, m1 = 0.0093	–	776.87	–	–
311 K, m1 = 0.2668	–	793.11	–	–
311.2 K, m1 = 0.1112	–	784.4	–	–
311.2 K, m1 = 0.3042	–	794.7	–	–
311.4 K, m1 = 0.053	–	779.24	–	–
311.5 K, m1 = 0.0855	–	781.28	–	–
311.5 K, m1 = 0.1798	–	788.93	–	–
311.55 K, m1 = 0.0059	–	775.36	–	–
311.6 K, m1 = 0.1455	–	786.44	–	–
311.9 K, m1 = 0.2192	–	789.45	–	–
312.1 K, m1 = 0.1402	–	785.37	–	–
312.15 K, m1 = 0.0646	–	780.21	–	–
312.3 K, m1 = 0.0093	–	775.23	–	–
312.35 K, m1 = 0.2003	–	788.52	–	–
312.45 K, m1 = 0.2422	–	790.83	–	–
312.7 K, m1 = 0.0339	–	777.5	–	–
312.75 K, m1 = 0.014	–	775.84	–	–
312.9 K, m1 = 0.053	–	777.6	–	–
313.05 K, m1 = 0.0855	–	779.61	–	–
313.1 K, m1 = 0.2668	–	791.07	–	–
313.15 K, m1 = 0.0059	0.0376	–	1053.9	–
313.15 K, m1 = 0.0093	0.0598	–	1054.5	–
313.15 K, m1 = 0.014	–	–	–	0.4545
313.15 K, m1 = 0.018	0.0685	–	1055.7	0.4559
313.15 K, m1 = 0.0339	0.089	–	–	0.4632
313.15 K, m1 = 0.053	0.1041	–	1059.6	–
313.15 K, m1 = 0.0646	0.1137	–	–	0.4698
313.15 K, m1 = 0.0855	0.1243	–	1059	–
313.15 K, m1 = 0.1012	–	–	–	0.4881
313.15 K, m1 = 0.1024	0.1348	–	1061	–
313.15 K, m1 = 0.13	–	–	–	0.4956
313.15 K, m1 = 0.1402	0.1535	–	1062.7	0.5
313.15 K, m1 = 0.1455	0.1577	–	1059.1	–
313.15 K, m1 = 0.17	–	–	–	0.5145
313.15 K, m1 = 0.1837	0.166	–	1061.4	–
313.15 K, m1 = 0.2003	–	–	–	0.5239
313.15 K, m1 = 0.2192	–	–	1064.3	–
313.15 K, m1 = 0.2422	0.1817	–	1064.9	0.5375
313.15 K, m1 = 0.2453	–	–	–	0.5373
313.15 K, m1 = 0.2889	0.1868	–	1066.1	0.5513
313.15 K, m1 = 0.3042	–	–	1067.2	–
313.55 K, m1 = 0.3042	–	792.2	–	–
313.65 K, m1 = 0.1112	–	782	–	–
313.95 K, m1 = 0.1455	–	784.03	–	–
313.95 K, m1 = 0.1798	–	786.45	–	–
314.05 K, m1 = 0.0059	–	772.92	–	–
314.55 K, m1 = 0.1402	–	782.97	–	–
314.6 K, m1 = 0.0646	–	777.82	–	–
314.7 K, m1 = 0.0093	–	772.8	–	–
314.8 K, m1 = 0.2003	–	786.04	–	–
314.8 K, m1 = 0.2422	–	788.41	–	–
314.8 K, m1 = 0.2668	–	789.38	–	–
315.1 K, m1 = 0.0339	–	775.12	–	–
315.2 K, m1 = 0.014	–	773.47	–	–
315.4 K, m1 = 0.053	–	775.16	–	–
315.45 K, m1 = 0.0855	–	777.19	–	–
316.05 K, m1 = 0.3042	–	789.78	–	–
316.35 K, m1 = 0.0059	–	770.56	–	–
316.35 K, m1 = 0.1798	–	784.05	–	–
316.4 K, m1 = 0.1455	–	781.57	–	–
316.95 K, m1 = 0.0855	–	775.61	–	–
316.95 K, m1 = 0.2668	–	787.26	–	–
317 K, m1 = 0.0093	–	770.44	–	–
317.25 K, m1 = 0.2003	–	783.64	–	–
318.7 K, m1 = 0.1455	–	779.18	–	–
